Measured values published in patent US10898469B2, “Imidazolylamide derivative” (Sumitomo Dainippon Pharma Co., Ltd., priority 2016, dated 2021).
Counter-ions that a name gives are not always drawn.

Columns and labels:
Format in all cases: cell-based, human
[1] = test system: HT-29 cells; experiment: Inhibition test for sphere-forming ability of cancer cells in the presence of BSA (Test Example 2), HT-29; details: in the presence of 5% BSA, cultured 4 days
Procedure: (§1) Human colorectal cancer-derived HCT-116 cells, human colon-adenocarcinoma-derived HT-29 cells, and human pharyngeal cancer-derived FaDu cells were available from American Type Culture Collection (ATCC). HCT-116 cells and HT-29 cells were cultured at 37° C. under 5% CO2 using the McCoy's 5a medium containing 10% fetal bovine serum (FBS) and 1% penicillin/streptomycin, and FaDu cells were cultured at 37° C. under 5% CO2 using the MEM medium containing 10% FBS, 1% non-essential amino acid, 1% sodium pyruvate, 5% bovine serum albumin (BSA), and 1% penicillin/streptomycin. HCT-116 cells, HT-29 cells, and FaDu cells were seeded in a 384 Well Black Clear Bottom Ultra-Low Attachment Microplate (Corning Cat. No. 3827) in an amount of 350-800 cells/well using the DMEM/F12 medium containing 2% B27 supplement (GIBCO), 20 ng/mL epidermal growth factor (EGF) (peprotech), 10 ng/mL basic fibroblast growth factor (bFGF) (peprotech), 5 μg/mL insulin (Sigma), 5% bovine serum albumin (BSA), and 1% penicillin/streptomycin. Each test compound was added into each well to adjust the final concentration of DMSO to 0.1%, and the cells were cultured for 4 days. The number of viable cells in each well was then measured with CellTiter-Glo® Luminescent Cell Viability Assay (Promega) to calculate the concentration of each test compound for 50% inhibition of cell proliferation (Sphere IC50 value; μmol/L).
(§2) The experiment of Test Example 2 was performed for each compound of each Example.
(§3) The concentration of each test compound for 50% inhibition of cell proliferation (Sphere IC50 value; μmol/L) is shown in the following Table.

[2] = test system: HCT-116 cells; experiment: Inhibition test for sphere-forming ability of cancer cells in the presence of BSA (Test Example 2), HCT-116; details: for IC50: HCT-116 cells, in the presence of 5% BSA, cultured 4 days; for inhibitory effect on the sphere-forming ability of cancer cells: Test Example 2, in the presence of 5% BSA, summary in words, cell line not given (HCT-116, HT-29, FaDu tested)
Procedure, shortened: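 Spheres grown 4 days in ultra-low-attachment wells, 350-800 cells/well, in DMEM/F12 with 2% B27, 20 ng/mL EGF, 10 ng/mL bFGF, 5 μg/mL insulin and 5% BSA; 0.1% DMSO final. Viable cells read by CellTiter-Glo luminescence; Sphere IC50 (μmol/L) for 50% proliferation inhibition.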

[3] = test system: FaDu cells; experiment: Inhibition test for sphere-forming ability of cancer cells (Test Example 1), FaDu; details: concentration for 50% inhibition of cell proliferation, read-out: IC50 (μmol/L) FaDu (Sphere IC50 value)
Procedure, shortened: (§4)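 First, 350-800 cells/well are plated on ultra-low-attachment surfaces in serum-free DMEM/F12 supplemented with B27, 20 ng/mL EGF, 10 ng/mL bFGF and insulin. Next, test compound is added (final DMSO 0.1%). After 4 days, viable cells are quantified by CellTiter-Glo and Sphere IC50 is calculated.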

[4] = test system: FaDu cells; experiment: Inhibition test for sphere-forming ability of cancer cells in the presence of BSA (Test Example 2), FaDu; details: in the presence of 5% BSA, cultured 4 days
Procedure: as §1, §2, §3

[5] = test system: HCT-116 cells; experiment: Inhibition test for sphere-forming ability of cancer cells (Test Example 1), HCT-116; details: for IC50: HCT-116 cells, concentration for 50% inhibition of cell proliferation, read-out: IC50 (μmol/L) HCT-116 (Sphere IC50 value); for inhibitory effect on the sphere-forming ability of cancer cells: Test Example 1, summary in words, cell line not given (HCT-116, HT-29, FaDu tested)
Procedure, shortened: as §4

[6] = test system: HT-29 cells; experiment: Inhibition test for sphere-forming ability of cancer cells (Test Example 1), HT-29; details: concentration for 50% inhibition of cell proliferation, read-out: IC50 (μmol/L) HT-29 (Sphere IC50 value)
Procedure, shortened: as §4

SMILES	IC50 ([1]; Homo sapiens, 96 h) [nM]	IC50 ([2]; Homo sapiens, HCT-116, 96 h) [nM]	inhibitory effect on the sphere-forming ability of cancer cells [2]	IC50 ([3]; Homo sapiens) [µmol/L]	IC50 ([4]; Homo sapiens, 96 h) [nM]	IC50 ([5]; Homo sapiens) [µmol/L]	inhibitory effect on the sphere-forming ability of cancer cells [5]	IC50 ([6]; Homo sapiens) [µmol/L]	IC50 [1] [nM]	IC50 [2] [nM]	IC50 [3] [µmol/L]	IC50 [4] [nM]	IC50 [5] [µmol/L]	IC50 [6] [µmol/L]
COc1ccc(/C=C/C(=O)Nc2cn(Cc3cccc(C(F)(F)F)c3)cn2)cc1OCCO [Example 34, (2E)-3-[3-(2-hydroxyethoxy)-4-methoxyphenyl]-N-{1[3-(trifluoromethyl)benzyl]-1H-imidazol-4-yl}prop-2-enamide]	580	630	particularly potent inhibitory effect	0.09	70	0.09	particularly potent inhibitory effect	0.06						
O=C(Nc1cn(Cc2cccc(Cl)c2)cn1)c1cnc2[nH]ccc2c1 [Example 177]									6390	> 10000	3.62	5260	9.96	6.75
Cc1cccc(NC(=O)c2cn(Cc3cccc(Cl)c3)cn2)n1 [Example 258]									5750	9060	0.71	5190	0.77	0.7
O=C(/C=C/c1ccc(NC(=O)CO)cc1)Nc1cn(Cc2cccc(Cl)c2)cn1 [Example 7, (E)-N-(1-(3-Chlorobenzyl)-1H-imidazol-4-yl)-3-(4-(2-hydroxyacetylamino)phenyl)acrylamide]	550	790		0.35	460	0.66		0.13						
O=C(/C=C/c1ccc(F)c(OCCO)c1)Nc1cn(Cc2cccc(C(F)(F)F)c2)cn1 [Example 39, (E)-3-(4-Fluoro-3-(2-hydroxyethoxy)phenyl)-N-(1-(3-(trifluoromethyl)benzyl)-1H-imidazol-4-yl)acrylamide Hydrochloride]	2710	6860		0.07	580	0.42		0.45						
COc1ccc(C(=O)Nc2cn(Cc3cccc(F)c3)cn2)cc1OC [Example 145]									630	1620	0.7	340	0.62	0.62
CNc1ccc(C(=O)Nc2cn(Cc3cccc(Cl)c3)cn2)cn1 [Example 225]									6520	> 10000	6	5900	6.76	0.99
CC(=O)Nc1ccc(/C=C/C(=O)Nc2cn(Cc3cccc(OC(F)(F)F)c3)cn2)cc1 [Example 10, (2E)-3-[4-(acetylamino)phenyl]-N-{1-[3-(trifluoromethoxy)benzyl]-1H-imidazol-4-yl}prop-2-enamide]	550	830		0.07	280	0.63		0.07						
O=C(Nc1ccncn1)c1cn(Cc2cccc(Cl)c2)cn1 [Example 261]									520	860	0.59	480	0.61	0.46
CNc1ccc(/C=C/C(=O)Nc2cn(Cc3cccc(C(F)(F)F)c3)cn2)cn1 [Example 17]			particularly potent inhibitory effect				particularly potent inhibitory effect		350	640	0.08	50	0.08	0.04
CC(=O)Nc1ccc(/C=C/C(=O)Nc2cn(Cc3cc(F)c(F)c(F)c3)cn2)cc1 [Example 11, (2E)-3-[4-(acetylamino)phenyl]-N-[1-(3,4,5-trifluorobenzyl)-1H-imidazol-4-yl]prop-2-enamide]	70	260	particularly potent inhibitory effect	0.08	60	< 0.01	particularly potent inhibitory effect	0.08						
COc1ccc(C(=O)Nc2cn(Cc3cc(F)c(F)cc3F)cn2)cc1OC [Example 143, 3,4-Dimethoxy-N-[1-(2,4,5-trifluorobenzyl)-1H-imidazol-4-yl]benzamide]	5210	6350		0.93	960	0.95		0.84						
COc1ccc(C(=O)Nc2cn(Cc3cc(F)cc(F)c3)cn2)cc1OC [Example 152, 3,4-dimethoxy-N-[1-(3,5-difluorobenzyl)-1H-imidazol-4-yl]benzamide]	630	570		0.42	150	0.09	particularly potent inhibitory effect	0.09						
COc1ccc(C(=O)Nc2cn(Cc3cc(F)c(F)c(F)c3)cn2)cc1OC [Example 236, 3,4-dimethoxy-N-[1-(3,4,5-trifluorobenzyl)-1H-imidazol-4-yl]benzamide]	60	360	particularly potent inhibitory effect	0.05	40	0.06	particularly potent inhibitory effect	0.05						
CC(=O)Nc1ccc(/C=C/C(=O)Nc2cn(Cc3cccc(C(F)(F)F)c3)cn2)cc1 [Example 8, (2E)-3-[4-(acetylamino)phenyl]-N-{1-[3-(trifluoromethyl)benzyl]-1H-imidazol-4-yl}prop-2-enamide]	370	630	particularly potent inhibitory effect	0.06	70	0.31	particularly potent inhibitory effect	0.05						
O=C(/C=C/c1ccc(NCC(F)F)nc1)Nc1cn(Cc2cccc(Cl)c2)cn1 [Example 14, (E)-N-(1-(3-Chlorobenzyl)-1H-imidazol-4-yl)-3-(6-((2,2-difluoroethyl)amino)pyridin-3-yl)acrylamide]	60	360	particularly potent inhibitory effect	0.04	60	0.06	particularly potent inhibitory effect	< 0.01						
COc1ccc(C(=O)Nc2cn(Cc3ccc(F)cc3)cn2)cc1OC [Example 146]									810	6020	0.8	550	0.64	0.74
CC(=O)Nc1ccc(C(=O)Nc2cn(Cc3cccc(Cl)c3)cn2)cn1 [Example 247, 6-(Acetylamino)-N-[1-(3-chlorobenzyl)-1H-imidazol-4-yl]nicotinamide]	7150	9840		7.25	6800	9.22		0.42						
O=C(/C=C/c1ccc(F)c(OCCO)c1)Nc1cn(Cc2cccc(Cl)c2)cn1 [Example 40]	3330	7450		0.05	580	0.48		0.18						
O=C(/C=C/c1cccnc1)Nc1cn(Cc2cccc(Cl)c2)cn1 [Example 41, (2E)-N-[1-(3-chlorobenzyl)-1H-imidazol-4-yl]-3-(pyridin-3-yl)prop-2-enamide]	4290	5790		0.73	590	0.89		0.54						
